Experiments:
OATP1B3 [1] = target: T1, OATP1B3 (Homo sapiens, UniProt Q9NPD5); assay: Inhibition of FMTX uptake in CHO cells stably transfected with OATP1B3; assay type: cell-based; settings: inhibitor class from measured IC50 against the consensus prediction
T1 construct: host or cells: CHO (Chinese hamster ovary) cells, stably transfected
T1 sequence (Q9NPD5 1-702): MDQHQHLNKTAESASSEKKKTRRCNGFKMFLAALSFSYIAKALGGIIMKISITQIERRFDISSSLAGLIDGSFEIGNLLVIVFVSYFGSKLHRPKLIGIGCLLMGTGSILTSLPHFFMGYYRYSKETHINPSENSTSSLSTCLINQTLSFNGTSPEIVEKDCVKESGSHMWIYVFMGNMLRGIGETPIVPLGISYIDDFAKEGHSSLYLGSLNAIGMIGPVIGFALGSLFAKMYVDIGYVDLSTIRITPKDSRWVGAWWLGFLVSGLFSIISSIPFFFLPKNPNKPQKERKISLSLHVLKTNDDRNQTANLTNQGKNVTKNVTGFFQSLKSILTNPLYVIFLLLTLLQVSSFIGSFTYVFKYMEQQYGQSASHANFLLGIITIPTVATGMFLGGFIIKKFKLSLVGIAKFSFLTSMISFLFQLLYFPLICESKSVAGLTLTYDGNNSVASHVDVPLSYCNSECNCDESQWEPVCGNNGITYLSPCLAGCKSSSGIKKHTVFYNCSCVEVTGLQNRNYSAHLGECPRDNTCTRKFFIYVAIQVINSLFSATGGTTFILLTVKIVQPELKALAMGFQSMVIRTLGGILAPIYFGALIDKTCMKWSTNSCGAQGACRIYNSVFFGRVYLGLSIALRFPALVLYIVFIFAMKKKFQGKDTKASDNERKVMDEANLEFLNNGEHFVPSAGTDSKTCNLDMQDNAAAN
Method: (§1) Chinese hamster ovary (CHO) cells that were stably transfected with OATP1B1 or OATP1B3 and wild-type CHO cells were provided by the University of Zurich, Switzerland, and have been extensively characterized previously.[24],[56],[57] Cells were grown in Dulbecco’s modified Eagle medium (DMEM) supplemented with 10% FCS, 50 μg/mL L-proline, 100 U/mL penicillin, and 100 μg/mL streptomycin. The culture media of the transfected CHO cells additionally contained 500 μg/mL Geneticin sulfate (G418) (Sigma-Aldrich, Munich, Germany). Media and supplements were obtained from Invitrogen (Karlsruhe, Germany). Cells were incubated at 5% CO2 and 37 °C. For uptake experiments, CHO cells were seeded in 24-well plates (BD Biosciences, Heidelberg, Germany) at a density of 25,000 cells/well. Uptake assays were generally performed on day 3 after seeding, when the cells had grown to confluence. 24 h before starting the transport experiments, cells were additionally treated with 5 mM sodium butyrate (Sigma-Aldrich, Munich, Germany) to induce gene expression. Prior to the uptake experiments, cells were rinsed twice with 2 mL of prewarmed (37 °C) uptake buffer (116.4 mM NaCl, 5.3 mM KCL, 1 mM NaH2PO4, 0.8 mM MgSO4, 5.5 mM D-glucose, and 20 mM Hepes, pH adjusted to 7.4). Uptake was initiated by adding 0.5 mL of uptake buffer containing 5 μM of the fluorescent OATP1B1/1B3 substrate FMTX[58] in the presence or absence of inhibitors. After 10 min culture at 37 °C, uptake was stopped by removing the uptake solution and washing the cells 3 times with ice-cold uptake buffer. The cells were then lysed with 0.5 mL of 0.5% Triton X-100 solution dissolved in PBS and placed on a plate shaker for 30 min. Fluorescence was measured in an Enspire Multimode plate reader (PerkinElmer, Waltham, MA) at an excitation wavelength of 485 and an emission wavelength of 528 nm.
(§2) IC50 values were determined by plotting the log inhibitor concentration against the net uptake rate and nonlinear regression of the data set using the equation [drawing 1] in which y is the net uptake rate (pmol/μg of protein/min), I is the inhibitor concentration (μM), s is the slope at the point of inversion, and a and b are the maximum and minimum values for cellular uptake (GraphPad Software, San Diego, CA, USA) . Net uptake was calculated for each inhibitor concentration as the difference in the uptake rates of the transporter-expressing and wild-type cell lines. Unless otherwise indicated, values are expressed as mean ± SD of three individual experiments. Significant differences from control values were determined using a Student’s paired t test at a significance level of p < 0.05.

OATP1B1 [2] = target: T2, OATP1B1 (Homo sapiens, UniProt Q9Y6L6); assay: Inhibition of FMTX uptake in CHO cells stably transfected with OATP1B1; assay type: cell-based
T2 construct: host or cells: CHO (Chinese hamster ovary) cells, stably transfected
T2 sequence (Q9Y6L6 1-691): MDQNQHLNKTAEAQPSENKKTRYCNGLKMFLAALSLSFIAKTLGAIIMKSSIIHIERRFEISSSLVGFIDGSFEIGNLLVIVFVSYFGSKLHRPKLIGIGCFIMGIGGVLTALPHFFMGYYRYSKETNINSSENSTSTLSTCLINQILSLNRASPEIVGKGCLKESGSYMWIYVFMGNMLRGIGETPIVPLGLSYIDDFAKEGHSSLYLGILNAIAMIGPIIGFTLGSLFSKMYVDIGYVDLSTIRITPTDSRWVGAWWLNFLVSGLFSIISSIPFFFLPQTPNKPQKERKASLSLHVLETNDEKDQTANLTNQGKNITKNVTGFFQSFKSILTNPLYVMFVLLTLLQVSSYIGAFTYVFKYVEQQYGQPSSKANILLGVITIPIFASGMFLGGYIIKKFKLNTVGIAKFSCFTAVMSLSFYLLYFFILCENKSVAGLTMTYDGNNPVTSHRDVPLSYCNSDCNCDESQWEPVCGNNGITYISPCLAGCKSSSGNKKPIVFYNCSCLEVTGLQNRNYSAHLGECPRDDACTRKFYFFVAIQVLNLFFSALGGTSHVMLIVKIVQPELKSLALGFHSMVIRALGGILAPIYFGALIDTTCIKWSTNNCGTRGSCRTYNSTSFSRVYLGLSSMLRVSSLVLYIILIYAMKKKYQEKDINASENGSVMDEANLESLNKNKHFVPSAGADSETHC
Method: as §1, §2

OATP1B3 [3] = settings: commercial library of 640 FDA-approved drugs; cited from earlier work
[4] = cited from earlier work
OATP1B1 [5] = test system: OATP1B1; design: method as in PMID 25603031; settings: commercial library of 640 FDA-approved drugs; cited from earlier work
OATP1B1 [6] = test system: OATP1B1; design: method as in PMID 22541068; settings: cited from earlier work
OATP1B1 [7] = test system: OATP1B1; design: method as in PMID 23571415; settings: cited from earlier work

Structure (SMILES) | Correctness of prediction, second symbol (OATP1B3) (OATP1B3 [1]) | IC50 (OATP1B1 [2]; CHO cells stably transfected with OATP1B1, 5 μM FMTX, 10 min, 37 °C, means ± SD of three independent experiments) [µM] | Correctness of prediction, first symbol (OATP1B1) (OATP1B1 [2]; inhibitor class from measured IC50 against the consensus prediction) | rank among OATP1B3 inhibitors in the screen of van de Steeg et al. (OATP1B3 [3]) | hepatotoxicity, literature reports [4] | hyperbilirubinemia, reports in online sources and literature [4] | rank among OATP1B1 inhibitors in the screen of van de Steeg et al. (OATP1B1 [5]) | OATP1B1 inhibition class as evaluated by Karlgren et al. (OATP1B1 [6]) | OATP1B1 inhibition class as annotated by De Bruyn et al. (OATP1B1 [7])
CO[C@H]1C[C@@H]2CC[C@@H](C)[C@@](O)(O2)C(=O)C(=O)N2CCCC[C@H]2C(=O)O[C@H]([C@H](C)C[C@@H]2CC[C@@H](O)[C@H](OC)C2)CC(=O)[C@H](C)/C=C(\C)[C@@H](O)[C@@H](OC)C(=O)[C@H](C)C[C@H](C)/C=C/C=C/C=C/1C [Rapamycin (Sirolimus)] | +++,+++ (strong inhibitor (IC50 values less than 1 μM)) | 0.62 ± 0.19 | +++,+++ (strong inhibitor (IC50 values less than 1 μM)) | 20 strongest OATP1B1 and OATP1B3 inhibitors | some literature reports for hepatotoxicity | causing hyperbilirubinemia | 20 strongest OATP1B1 and OATP1B3 inhibitors | – | –
O=C(O)c1cc(/N=N/c2ccc(S(=O)(=O)Nc3ccccn3)cc2)ccc1O [sulfasalazine] | – | – | – | – | – | – | – | inhibitor | noninhibitor

Source: paper PMC4674819, “Identification of Novel Inhibitors of Organic Anion Transporting Polypeptides 1B1 and 1B3 (OATP1B1 and OATP1B3) Using a Consensus Vote of Six Classification Models” (Molecular Pharmaceutics, 2015)
